“Also recorded” adds a separate entry of the source.
Assays:
EO771 = experiment: Inhibition of mammary carcinoma cell line EO771; format: cell-based, mouse (C57BL/6); settings: Mus musculus; Table 5; EO771, C57BL/6, Basal, HER2−
Method: 3-(4,5-Dimethylthiazol-2-yl)-2,5-diphenyltetrazolium Bromide (MTT) Cell Proliferation Assay. To cells grown in 96-well-tissue culture plate, 20 μl/well of MTT solution (5 mg/ml in PBS) was added. After 1-2 hours incubation at 37° C., the plate was centrifuged. Supernatant was discarded and 100 μl DMSO was added to dissolve water insoluble formazan, and the absorbance was read at 540 nm with a plate reader.

CYP3A4 = CYP3A4 (Homo sapiens, UniProt P08684); design: purchased Corning; host or cells: insect cells (microsomes); settings: inhibiting EET biosynthesis; background statement; cited from earlier work
Chain of CYP3A4 (P08684 whole entry): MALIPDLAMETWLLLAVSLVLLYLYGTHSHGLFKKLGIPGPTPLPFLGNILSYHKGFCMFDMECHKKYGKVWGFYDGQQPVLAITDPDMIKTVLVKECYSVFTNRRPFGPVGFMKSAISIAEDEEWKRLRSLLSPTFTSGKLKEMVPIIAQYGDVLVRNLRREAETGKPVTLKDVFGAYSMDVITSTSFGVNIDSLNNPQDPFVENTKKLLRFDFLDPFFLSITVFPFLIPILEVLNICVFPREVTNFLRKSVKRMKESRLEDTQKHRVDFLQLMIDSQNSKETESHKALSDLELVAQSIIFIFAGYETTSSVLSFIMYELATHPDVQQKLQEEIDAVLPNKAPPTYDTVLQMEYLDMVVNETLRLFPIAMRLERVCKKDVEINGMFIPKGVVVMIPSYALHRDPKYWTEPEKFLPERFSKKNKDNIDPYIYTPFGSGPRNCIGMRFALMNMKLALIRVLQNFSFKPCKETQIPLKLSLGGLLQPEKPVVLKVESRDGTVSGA

ERα = experiment: Nuclear translocation of ERα in MCF-7 cells; format: cell-based, human; settings: 10 μM, 2 hours, FIG. 6
Method: FIG. 6. […] A. representative images (Blue: nuclei; Red: ERα) from an experiment. B. Percentage change of nuclear ERα density normalized to nuclear DNA stained by Hoechst. MCF-7 cells (1.5×10^4 cells/well) were seeded on uSlide (8 wells, Ibidi, cat #80826) and cultured with complete culture medium (MEM medium with Earle's salts & L-glutamine) containing 10% FBS, 10 mM HEPES, 2 mM glutamine and 100 U penicillin and 100 U streptomycin for almost 70 hours. Then the cells were starved in serum, phenol red and antibiotics free MEM medium for almost 16 hours, followed with HCB (10 μM) or vehicle (0.01% DMSO) treatment for 2 hours in starvation medium. Then the cells were fixed, permeabilized and probed with monoclonal antibody against ERα (Abcam, Cat #16660, primary antibody) and Texas Red-conjugated goat anti rabbit IgG (Thermo Fisher Scientific, Cat #T-6391, secondary antibody). Nuclei were stained with Hoechst dye (Thermo Scientific, Cat #62249). The nuclear ERαas were analyzed with confocal microscopy. Four sites per well were selected randomly for collecting the image data. The density of fluorescence was measured by ImageJ. […] Intensities of lights in each ROI were measured in the blue channel (nuclei) and red (Texas red, estrogen receptor α) channel. […] Results normalized to control are expressed as means±S.D. (n=7). […]

MCF-7 cells [1] = experiment: Mitochondrial swelling, JC-1 confocal imaging in MCF-7 cells; format: cell-based, human; settings: 10 μM, FIG. 5
Method: FIG. 5. Mitochondrial swelling by HCB treatment in MCF-7 cells. MCF-7 cells were seeded at 30,000 cells/well into a chambered coverslip and treated with HCB or DMSO for 2 hours. JC-1 potential sensitive dye was added to a final concentration of 20 μM and incubation continued for an additional half an hour. Cell was then washed and imaged with a confocal microscope. Active mitochondria are stained yellow to orange. White arrows indicate swollen mitochondria.

MCF-7 cells [2] = experiment: TMRE mitochondrial membrane potential in MCF-7 cells; format: cell-based, human; settings: 10 μM, FIGS. 4A-4B
Method: FIG. 4A. Effect of HCB on mitochondrial cross membrane potential Δψ in MCF-7 cells. MCF-7 cells were seeded at 20,000 cells/well into a clear bottom black 96 well microplate. After treatments were added for 2 hours (FCCP control for 10 minutes), TMRE (tetramethylrhodamine, ethyl ester, Ex/Em 549/575) was added to a final concentration of 400 nM and incubation continued for additional 30 minutes. Media was removed and cells washed twice with PBS and 100 ul of PBS was added in the end. TMRE fluorescence was then measured with a plate reader. Results are reported as mean fluorescence intensity±S.D. (n=8, * indicates statistically significant difference from the DMSO control).
FIG. 4B. Effect of DCB and HCB on mitochondrial trans-membrane potential Δψ in MCF-7 cells. […] TMRE fluorescence was then measured with a plate reader. Results are reported as mean fluorescence intensity±S.D. (n=8, * indicates statistically significant difference from the DMSO control).
Mitochondrial cross membrane potential (Δψ) alteration in MCF-7 cells were measured by monitoring Δψ sensitive TMRE fluorescence intensity. […] TMRE fluorescence was then measured with a plate reader. Results are reported as mean fluorescence intensity±S.D. (n=8, * indicates statistically significant difference from the DMSO control).
TMRE Δψm measurement. […] Fluorescence was read at Ex 549 nm/Em 575 nm. […]

mm006 = experiment: Oxygen consumption rate (OCR), mm006; format: cell-based, mouse (C57BL/6)
Method: Measurement of oxygen consumption rate (OCR). Cells were maintained in growth medium consisting of 10% FBS at 37° C. with 5% CO2 and seeded at 25,000 cells per well in a 96-well XF96 cell culture microplates (Agilent, Santa Clara, CA). An 96 well XF sensor cartridge was hydrated and equilibrated with 200 ul calibrant in each well at 37° C. without CO2 overnight. Growth media was replaced with 150 μL DMEM based assay media (a non-buffered medium including 2 mM L-glutamine but no sodium bicarbonate (buffering agent), glucose, or sodium pyruvate, Agilent, Santa Clara, CA) the next day and cells were incubated CO2 free for 1 hour before the measurement of OCR by a Seahorse XFe Extracellular Flux Analyzer (Agilent, Santa Clara, CA), which measures uptake and excretion of metabolic end products in real time. After baseline measurements, 20 μl assay medium containing control vehicle or drugs were injected into corresponding wells. OCRs were measured periodically and can be reported in pmoles/minute or normalized against baseline measurements before treatment.

Compound	IC50 (EO771) [µM]	fold more potent than metformin (CYP3A4) [fold]	nuclear translocation of estrogen receptor (ER-α) (ERα)	effect on mitochondrial tubule networks (MCF-7 cells [1])	effect on mitochondrial membrane potential (MCF-7 cells [2])	OCR Inhibition [HCB] (uM) v vs. control (P < 0.05) (mm006) [µM]
CCCCCCNC(=N)NC(=N)NCc1ccccc1 [HBB, N1-hexyl-N5-benzyl-biguanide]	21.7	100	–	–	–	–
CCCCCCNC(=N)NC(=N)NCC12C3C4C5C3C1C5C42 (stereo not drawn) [HCB, Hexyl Cubanomethyl Biguanide]	–	–	significantly decrease; also recorded: decreases nuclear translocation of ERα	caused loss of mitochondrial tubule networks	inhibited the mitochondrial membrane potential	20
